Consider eleven compounds from patent publication US20250236614A1, “BICYCLIC TETRAHYDROAZEPINE DERIVATIVES” (Hoffmann-La Roche Inc., priority 2022, published 2025).

Test [1] deals with primary human T-cells. Put plainly: T-cell proliferation assay (CellTiter-Glo). Type of test: cell-based. The following applies: isomer A; for EC50: CD3 antibody-stimulated T-cells, CellTiter-Glo after 5 days, read-out: Tcell Proliferation CD3 EC50; for Emax proliferation (% activation) / Emax: CD3 condition, 5 days, 20 μM reference compound A1 = 100%, DMSO neutral control; for Emax: read-out: Emax proliferation (% activation). As for the experimental part:
Expanded primary human T-cells are thawed and cultured in RPMI 1640 (Gibco, #61870-010)+5% human serum (HS, Sigma, #H3667)+1 mM Sodium Pyruvate (Gibco, #11360-039)+50 μM 2-mercaptoethanol (Gibco, #31350-010) and 1× Pen-Strep (Life Technologies, #15140122) medium at density of 2 Mio/ml for 3 hours in 5% CO2, 37° C. and 95% humidity. For coating of plates, PBS++ only or PBS++ with CD3 antibody (concentration depending on donor and determined by CD3 titrations) is added 100 μl/well to Poly-D Lysine coated 96-well plates. Plates are sealed and incubated at room temperature for 3 hours on a table-top rocking platform. After incubation, plates are washed once with PBS−− and filled with 40 μl/well culture medium only. Compounds are then added (see next section) to medium only plates. After 3 hours of culturing the T-cells, cells are filtered through a cell strainer (Miltenyi Biotech, #130-041-407), counted again and concentration is adjusted to 1.25 Mio/ml.
Cells are then seeded 80 μl/well to the 40 μl/well including dispensed compounds according to plate layout. By adding cells, compounds are further diluted 1:3, and resulting in 100k cells/120 μl/well. After 48 hours 40 μl of supernatant is collected carefully from the top while not disturbing the cells. Cells are assessed for proliferation 5 days later by measuring […] using CellTiterGlo (Promega).
Compounds were added in a 5 or 6 pt dose response with the Tecan D300e Digital Dispenser, all conditions 3 times more concentrated than the end-concentration, since cells are added afterwards (80 μl cells to 40 μl prepared medium with treatment). The DR was starting at 20 μM or 10 μM final top concentration and a dilution factor of 3.333. The positive control was the reference compound A1 that was added in a dose response as well, additionally to 3 wells of only 20 μM representing the positive stimulator control. All wells were normalized with DMSO to a final concentration of 0.6% (0.2% end-concentration).
After 5 days, for detection of ATP which is directly proportional to the number of cells present per well, the CellTiter-Glo® 2.0 Reagent is used. After visual control for toxicity or precipitations of the tested compounds, the plates are equilibrated to room temperature for 45 minutes. CellTiter-Glo® 2.0 Reagent is equilibrated to room temperature as well. After equilibration, an equal amount of CellTiter-Glo reagent is added to the cells (80 μl/well) with an electronic multichannel pipette. Plates are placed on a rocking platform for 15 minutes at room temperature. After incubation, the bottom of the plates is sealed with backing tape. Luminescence is measured with PHERAstar FSX (interval time 0.5 sec, gain 3000, focal height 15 mm) and exported as CSV file for analysis in Genedata screener.
CD3 and PBS plates were analysed separately in Genedata Screener using Roche Normalization PCT_POS_CTRL with DMSO set as Neutral Control and 20 μM of the reference compound A1 set as Stimulator Control/100%.
For CD3 conditions EC50 and Emax of the fitted sigmoidal curve were reported. If no curve could be fitted, the EC50 was reported as blank field and the Emax was based on individual data points. […] Compounds which activate unstimulated cells (see IL2 measurements) or compounds which negatively affected viability were flagged.
(Cellular ATP, detected with luciferase, serves as a proxy for viable cell number.)

Test [2] deals with MV-3 RFP cells. As to the kind of experiment: T-cell TCB MV3 killing assay. The format is cell-based, human. The following applies: isomer A; for EC50: primary human T-cells + MCSP-TCB on MV-3 RFP cells, imaging over 120 hours, read-out: MSCP TCB killing MV-3 cells 5 d EC50; for Emax: Homo sapiens, MV-3, 120 h, read-out: MSCP TCB killing MV-3 cells 5 d Emax (%). As for the experimental part: All culturing steps are executed at 5% CO2, 37° C. and 95% humidity.
MV-3 RFP cells are cultured in MV-3 medium (DMEM+10% FBS, 1× PenStrep and 0.5 μg/mL Puromycin) for at least 3 weeks. Cultured MV-3 cells at 80% confluency are washed once with PBS−− and trypsinized until detached. Cells are then counted and resuspended to 1*10^5 cells/mL in T-cell medium (RPMI 1640+5% human serum+1 mM Sodium Pyruvate+50 μM 2-mercaptoethanol and 1× Pen-Strep). Cells are seeded with 100 μL/well into a 96-well plate (TTP, #92696), and placed for 40 minutes without moving at room temperature in order to achieve evenly distributed attachment of cells. Plates are then incubated until further use.
On the next day, expanded primary human T-cells are thawed and resuspended in T-cell medium to 4*10^6 cells/mL. For 3 hours, they are cultured in a 6-well plate with 6 mL per well at maximum. After culturing the T-cells, they are filtered through a cell strainer (Miltenyi Biotech, #130-041-407), counted again, and cell concentration is adjusted to 2*10^6 cells/mL.
MCSP-TCB or PBS are pre-diluted in T-cell medium (concentration depending on T-cell donor), 4 times more concentrated than the end-concentration. 60 μL/well of pre-dilutions are then distributed into a round bottom plate (Costar, #3799) according to plate layout. Compounds are added in a 9 pt dose response with the Tecan D300e Digital Dispenser, as well 4 times more concentrated than the end-concentration. DMSO concentration of all wells is adjusted to 0.8%, resulting in 0.2% as final concentration.
60 μL per well of T-cell suspension are added to the prepared round bottom plate and resuspended with a manual multichannel. 100 μL/well of the resuspended T-cell suspension including treatments are then transferred cautiously to the over-night cultured MV-3 cells according to plate layout. 100 μL T-cell medium only is added to the outer MV-3 wells only. Final compound DR is starting at 20 μM with a dilution factor of 3.333. Final TCB concentration is between […] and was determined for each T-cell donor individually by running TCB titrations. For each donor, a TCB concentration was chosen which corresponds to 10-20% of MV3 baseline cell killing in the absence of compound treatment. Positive control is the reference compound A1 which is added in a DR, as well as additional wells with only 20 μM. 20 μM of reference compound A1 represent the positive stimulator control, TCB only (DMSO wells) the neutral control.
After transfer of T-cells with treatment pre-dilutions, MV-3 cells are imaged by time-lapse microscopy using IncucyteZOOM™ (Essen BioScience, MI, USA). Imaging is performed every 3 hours for a total of 120 hours (10× objective, phase and red image channels, acquisition time 400 ms, Green/Red 4614 optical module). RFP object count per well is analysed in the IncucyteZOOM™ Software (Version 2019B Rev2) with a mask that was previously created and optimized for MV-3 cells. Raw data is exported as object count/well and values are normalized as % TCL compared to wells with MV-3 only, representing 100% growth and therefore 0% TCL.
Calculated 00 TCL values are analysed in Genedata Screener using Roche Normalization PCT_POS_CTRL with MCSP-TCB only set as Neutral Control and 20 μM of the reference compound A1 set as Stimulator Control/100%.
Induced TCL by compounds without TCB treatment or toxicity (observed in the PBS condition) were be flagged.

[3] abbreviates: 20 μM reference compound A1 = 100%, MCSP-TCB only neutral control.

Where two headings read alike, the source gives them in different places.

“2-methyl-2-[5-[(3S)-3-amino-5,5,7-trifluoro-2-oxo-1-[[4-(trifluoromethoxy)phenyl]methyl]-3,4-dihydro-1-benzazepin-8-yl]-1,3,4-oxadiazol-2-yl]propanenitrile and 2-methyl-2-[5-[(3R)-3-amino-5,5,7-trifluoro-2-oxo-1-[[4-(trifluoromethoxy)phenyl]methyl]-3,4-dihydro-1-benzazepin-8-yl]-1,3,4-oxadiazol-2-yl]propanenitrile [Example 2]”: in test [1], the EC50 was found to be 315 nM and the “Emax proliferation (% activation)” value was found to be 161 % activation. For the same compound, the “MSCP TCB killing MV-3 cells 5 d Emax (%)” value in test [2] (setting [3]) was determined as 93%. Besides, in test [2], the EC50 is 43 nM.

On to `CC(C)(c1nnc(-c2cc3c(cc2F)C(F)(F)CC(N)C(=O)N3Cc2ccc(Oc3ccccc3)cc2)o1)S(C)(=O)=O` (racemic) [Example 5, (3S)-3-amino-5,5,7-trifluoro-8-[5-(1-methyl-1-methylsulfonyl-ethyl)-1,3,4-oxadiazol-2-yl]-1-[(4-phenoxyphenyl)methyl]-3,4-dihydro-1-benzazepin-2-one and (3R)-3-amino-5,5,7-trifluoro-8-[5-(1-methyl-1-methylsulfonyl-ethyl)-1,3,4-oxadiazol-2-yl]-1-[(4-phenoxyphenyl)methyl]-3,4-dihydro-1-benzazepin-2-one], for which the EC50 in test [1] (Homo sapiens, T-cell, 120 h) was found to be 684 nM; in test [2], 372 nM. Further, the Emax worked out at 249% in test [1] (Homo sapiens, T-cell, 120 h) and 130% in test [2] (setting [3]).

Consider `COC(F)(c1nnc(-c2cc3c(cc2F)C(F)(F)C[C@H](N)C(=O)N3Cc2ccc(OC(F)(F)F)cc2)o1)C(F)(F)F` (single isomer, unassigned) [Example 4], for which the EC50 stood at 140 nM in test [1] (Homo sapiens, T-cell, 120 h) and 69 nM in test [2]. The Emax in test [1] (Homo sapiens, T-cell, 120 h) was 112%; in test [2] (setting [3]) it was 94%.

Turning to `CC(C)(c1nnc(-c2cc3c(cc2F)C(F)(F)C[C@@H](N)C(=O)N3Cc2ccc(-c3ccc(C(F)(F)F)cn3)cc2)o1)S(C)(=O)=O` (single isomer, unassigned) [Example 8], in test [1] (Homo sapiens, T-cell, 120 h), the EC50 was 185 nM. For the same compound, the Emax in test [1] (Homo sapiens, T-cell, 120 h) was 86%; in test [2] (setting [3]), 100%.

As for `COc1ccc(-c2ccc(CN3C(=O)[C@H](N)CC(F)(F)c4cc(F)c(-c5nnc(C(C)(C)C#N)o5)cc43)cc2)cc1` (single isomer, unassigned) [Example 9], in test [1] (Homo sapiens, T-cell, 120 h), the EC50 was found to be 267 nM and the Emax is 114%. Also, the Emax in test [2] (setting [3]) was found to be 92%.

Regarding `CC(C)(C#N)c1nnc(-c2cc3c(cc2F)C(F)(F)C[C@@H](N)C(=O)N3Cc2ccc(-c3ccc(C(F)(F)F)cn3)cc2)o1` (single isomer, unassigned) [Example 12], in test [1] (Homo sapiens, T-cell, 120 h), the EC50 is 409 nM and the Emax was 152%. In addition, the Emax in test [2] (setting [3]) stood at 103%.

Turning to `N[C@@H]1CC(F)(F)c2cc(F)c(-c3nnc(N4CCCC4)o3)cc2N(Cc2ccc(-c3noc(C(F)(F)F)n3)cc2)C1=O` (single isomer, unassigned) [Example 14], the EC50 in test [1] (Homo sapiens, T-cell, 120 h) came out at 593 nM. Moreover, the Emax in test [1] (Homo sapiens, T-cell, 120 h) was determined as 149%; in test [2] (setting [3]), 113%.

Regarding `CC(C)(c1nnc(-c2cc3c(cc2F)C(F)(F)C[C@@H](N)C(=O)N3Cc2ccc(-c3noc(C(F)(F)F)n3)cc2)o1)S(C)(=O)=O` (single isomer, unassigned) [Example 16], in test [1] (Homo sapiens, T-cell, 120 h), the EC50 was found to be 296 nM and the Emax worked out at 241%. Also, the Emax in test [2] (setting [3]) amounted to 84%.

On to `N[C@@H]1CC(F)(F)c2cc(F)c(-c3nnc(N4CCOC5(CC5)C4)o3)cc2N(Cc2ccc(-c3noc(C(F)(F)F)n3)cc2)C1=O` (single isomer, unassigned) [Example 17], for which, in test [1] (Homo sapiens, T-cell, 120 h), the EC50 was determined as 558 nM and the Emax was determined as 115%. For the same compound, the Emax in test [2] (setting [3]) is 105%.

Consider `CC(C)(C#N)c1nnc(-c2cc3c(cc2F)C(F)(F)C[C@@H](N)C(=O)N3Cc2ccc(-c3ccc(OC(F)F)cn3)cc2)o1` (single isomer, unassigned) [Example 41], for which the EC50 in test [1] (Homo sapiens, T-cell, 120 h) was found to be 196 nM. For the same compound, the Emax in test [1] (Homo sapiens, T-cell, 120 h) turned out to be 113%; in test [2] (setting [3]), 98%.

For the compound “(3S)-3-amino-5,5,7-trifluoro-8-(5-morpholino-1,3,4-oxadiazol-2-yl)-1-[[4-(trifluoromethoxy)phenyl]methyl]-3,4-dihydro-1-benzazepin-2-one and (3R)-3-amino-5,5,7-trifluoro-8-(5-morpholino-1,3,4-oxadiazol-2-yl)-1-[[4-(trifluoromethoxy)phenyl]methyl]-3,4-dihydro-1-benzazepin-2-one [Example 3]”, in test [1], the EC50 is 550 nM and the “Emax proliferation (% activation)” value stood at 57 % activation.
